Measured values: patent publication US7417039B2, “Use of substituted azetidinone compounds for the treatment of sitosterolemia” (Schering Corporation, priority 2001, dated 2008)

How the values were obtained:
[1] = system: plasma plant sterols (sitosterol and campesterol) and LDL-C; assay: In vivo evaluation in humans: randomized, double-blind, placebo-controlled 8-week trial in homozygous sitosterolemia; parameters: species or system human; conditions: homozygous sitosterolemia patients, 8 weeks
Protocol: In a randomized multicenter, double-blind, placebo-controlled, 8-week trial, 37 human patients previously diagnosed with homozygous sitosterolemia were randomized to receive Compound VIII (n=30) or placebo (n=7): • Treatment A—Compound VIII given orally as 1 dose (10 mg) per day, • Treatment B—Placebo (matching image of Compound VIII 10 mg) given orally as 1 dose per day, every morning for 8 consecutive weeks.
During the trial, subjects were instructed to maintain (as a minimum) a National Cholesterol Education Program (NCEP) Step 1 diet
Patients were instructed to maintain a diary of food intake and monitored prior to randomization, at baseline and during therapy. Results of the central diet analysis for each subject were reported as a RISCC score (Ratio of Ingested Saturated fat and Cholesterol to Calories) and as dietary components. RISCC scores indicate the potential for a diet to influence plasma lipid levels. A score ranging from 14 to 20 correlates with a NCEP step 1 diet.
Low-Density-Lipoprotein-Cholesterol (LDL-C) results were reported as direct LDL-C (plasma concentration was determined following a standard ultra centrifugation/precipitation procedure; lipid and lipoprotein analysis, see Manual of Laboratory Operations: Lipid Research Clinics Program Report. Washington, D.C.: US Department of Health, Education, and Welfare publication; 1974. NIH 75-628, vol 1, which is incorporated by reference herein or beta-quantification) and calculated LDL-C (plasma concentration; based on Freidewald equation: LDL-C=Total cholesterol minus (Triglycerides divided by 5) minus High-density-lipoprotein cholesterol (HDL-C)).
Total cholesterol and Triglycerides were determined enzymatically using a Hitachi 747 analyzer; see, Steiner P M, Freidel J, Bremner W F, Stein E A: Standardization of micromethods for plasma cholesterol, triglyceride and HDL-cholesterol with the Lipid Clinics' methodology [abstract]. J Clin Chem Clin Biochem 1981;19:850, which is incorporated by reference herein.
HDL-C was determined enzymatically after heparin and magnesium precipitation; see, Steele W B, Koehle D F, Azar M M, Blaszkowski T P, Kuba K, Dempsey M E: Enzymatic determinations of cholesterol in high density lipoprotein fractions prepared by precipitation technique. Clin Chem 1976;22:98-101, which is incorporated by reference herein.
Plasma plant sterols (sitosterol and campesterol) and LDL-C were assessed at baseline (Day 1) and at endpoint (average of Weeks 6 and 8 values). See: Salen, Gerald; Shore, Virgie; Tint, G S; Forte, T: Shefer, S; Horak, I; Horak, E; Dayal, B; Nguyen, L.; Batta, A K; Lindgren, F T; Kwiterovich, Jr, P O, “Increased sitosterol absorption, decreased removal and expanded body pools compensate for reduced cholesterol synthesis in sitosterolemia with xanthomatosis”, J Lipid Res, Vol. 30, pp 1319-30, (1989) and Lutjohann, D; Bjorkhem, I; Beil, U F, and von Bergmann, K, “Sterol absorption and sterol balance in phytosterolemia evaluated by deuterium-labeled sterols: effect of sitostanol treatment” J Lipid Res. Vol. 36:(8), pp 1763-73, (1995), each of which is incorporated by reference herein.

Sitosterol Absorption = assay: In vivo evaluation in mice: [3H]-sitosterol absorption and hepatic accumulation
Protocol: In vivo activity of compound VIII in mice was determined by the following procedure:
Male ApoE knockout mice, age 6 wks, were received from Jackson Laboratory along with age-matched C57BL/J. The mice were housed 5 per cage, normal light cycle, normal diet. Twenty-six mice of each variety were weighed and housed, 1 per cage, in suspended wire cages with normal light cycle, normal diet. After three days, the mice were reweighed. Based on body weight, the mice were divided into 5 groups for each type of treatment:
Control (corn oil) and Compositions including Compound VIII at 0.3, 1, 3, and 10 mg/kg of body weight per day.
Preparation of Compositions including Compound VIII based on 22 g average mouse body weight:
The mice were gavaged using a feeding needle 30 min before receiving ^14C-cholesterol (NEN, NEC 018) and ^3H-sitosterol (NEN, CUS 030T). The radioactive dose was prepared from: • 114 μL ^3H-sitosterol stock (1 μCi/μL in ethanol); • 1.425 mL ^14C-cholesterol stock (40 μCi/mL in ethanol); • 5.7 mg cholesterol, Sigma C 8667; • 5.7 mg β-sitosterol, Sigma, S 1270; • The ethanol was removed under N2; • 5.7 ml of corn oil was added, and the mixture was warmed to 60° C.; and shaken for 1 hr.
Each 0.1 ml dose contained 2 μCi ^3H-sitosterol, 0.1 mg cold (non radioactive) sitosterol; 1 μCi ^14C-cholesterol, and 0.1 mg cold (non radioactive) cholesterol. Radioactive content was verified: 5×10 μl counted in Beckman LSC (liquid […] counter). Tritiated sitosterol was used as an “unabsorbable” marker to compare to the absorption of [^14C]-cholesterol in a mouse fecal isotope ratio cholesterol absorption model.
On the 4th, 5th, and 6th days, feces were collected and stored at −20° C. in vials just before dosing with Control or Compound VIII late in the day. Termination of the experiment on the 7th day involved sacrifice by exsanguination, removal and weighing of the liver. 3×˜250 mg samples of liver were put in vials. The liver samples were digested with 1 ml of 1N NaOH at 60° overnight, neutralized with 0.1 ml 12N HCl and counted for ^14C and ^3H. The blood samples were allowed to clot at room temp for 1 hr, then centrifuged at 1000 G for 15 min. The serum was analyzed for total cholesterol (see Wako C I I; see Allain C C, Poon L S, Chan C S G, Richmond W, Fu P C. Enzymatic Determination of Total Serum Cholesterol. Clin. Chem. 1974; 20:470-475, which is incorporated by reference herein) and radioactivity (2×50 μL). Fecal samples were analyzed for radioactivity by combustion in a Packard Oxidizer followed by Beckman LSC.

[2] = 10 mg orally once daily, endpoint = average of Weeks 6 and 8

With `O=C1[C@H](CC[C@H](O)c2ccc(F)cc2)[C@@H](c2ccc(O)cc2)N1c1ccc(F)cc1` [Compound VIII, ezetimibe] the “mean (S.E.) percent change from Baseline at endpoint in plasma Campesterol” value [1, 2] was −24.3% (2.9%), the “mean (S.E.) percent change from Baseline at endpoint in plasma Sitosterol” value [1, 2] was −21.0% (2.8%) and the “percent change from Baseline at endpoint in LDL-C (mean, 95% CI)” value [1, 2] was −13.6% (−21.7%, −5.5%). The “reduction in campesterol compared to placebo” value ([1]; 10 mg per day) was “significant (p<0.001) reduction”, the “reduction in sitosterol compared to placebo” value ([1]; 10 mg per day) was “significant (p<0.001) reduction” and the tolerability ([1]; 10 mg per day) was “well tolerated”. The “% of administered dose absorbed of [^3H]-sitosterol in liver (total animal liver), average” value (from here on “% of administered dose absorbed … average”) (Sitosterol Absorption; ApoE KO mice, 0.3 mg/kg/day by gavage in corn oil) was 0.1863%, the “% of administered dose absorbed … average” value (Sitosterol Absorption; ApoE KO mice, 1 mg/kg/day by gavage in corn oil) was 0.1019% and the “% of administered dose absorbed … average” value (Sitosterol Absorption; ApoE KO mice, 3 mg/kg/day by gavage in corn oil) was 0.0772%. The “% of administered dose absorbed … average” value (Sitosterol Absorption; ApoE KO mice, 10 mg/kg/day by gavage in corn oil) was 0.0780%, the “absorption and hepatic accumulation of sitosterol” value (Sitosterol Absorption; C57BL/6J and Apo E KO mice, 0.3-10 mg/kg/day) was “dose dependently inhibit” and the “% of administered dose absorbed … average” value (Sitosterol Absorption; C57BL/6J mice, 0.3 mg/kg/day by gavage in corn oil) was 0.1093%. For the same compound, the “% of administered dose absorbed … average” value (Sitosterol Absorption; C57BL/6J mice, 1 mg/kg/day by gavage in corn oil) was 0.0588%, the “% of administered dose absorbed … average” value (Sitosterol Absorption; C57BL/6J mice, 3 mg/kg/day by gavage in corn oil) was 0.0489% and the “% of administered dose absorbed … average” value (Sitosterol Absorption; C57BL/6J mice, 10 mg/kg/day by gavage in corn oil) was 0.0552%.
